Data from ChEMBL document CHEMBL1201862, “PubChem BioAssay data set” (2004).
Activity calls are given as the source filed them.

Legend:
[1] = molecular target: T1, Polyadenylate-binding protein 1 (Homo sapiens, UniProt P11940); test: MLLE binding blockers, Cy5 peptide tracer – biochemical, fluorescence polarization, Cy5-PAM2 peptide, secondary, miRNA deadenylation inhibitor project, dose response (AID 602260); format: functional; settings: read-out: IC50_Mean
[2] = molecular target: T1, Polyadenylate-binding protein 1; test: MLLE domain peptide-binding blockers, IC50 – biochemical, fluorescence polarization, FITC-PAM2 peptide, dose response (AID 602259); format: functional; settings: read-out: IC50_Mean
[3] = molecular target: T2, Heat shock factor protein 1 (Mus musculus, UniProt P38532); test: decrease of HSF1-responsive luciferase luminescence – cell-based, NIH3T3, dose retest, confirmation (AID 2382); format: functional;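 note: NIH3T3 fibroblasts with HSF1-driven luciferase reporter stressed by proteasome inhibitor MG132; luminescence from HSF1-driven luciferase expression after 8 hours of MG132 stress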
T2 sequence (P38532 whole entry): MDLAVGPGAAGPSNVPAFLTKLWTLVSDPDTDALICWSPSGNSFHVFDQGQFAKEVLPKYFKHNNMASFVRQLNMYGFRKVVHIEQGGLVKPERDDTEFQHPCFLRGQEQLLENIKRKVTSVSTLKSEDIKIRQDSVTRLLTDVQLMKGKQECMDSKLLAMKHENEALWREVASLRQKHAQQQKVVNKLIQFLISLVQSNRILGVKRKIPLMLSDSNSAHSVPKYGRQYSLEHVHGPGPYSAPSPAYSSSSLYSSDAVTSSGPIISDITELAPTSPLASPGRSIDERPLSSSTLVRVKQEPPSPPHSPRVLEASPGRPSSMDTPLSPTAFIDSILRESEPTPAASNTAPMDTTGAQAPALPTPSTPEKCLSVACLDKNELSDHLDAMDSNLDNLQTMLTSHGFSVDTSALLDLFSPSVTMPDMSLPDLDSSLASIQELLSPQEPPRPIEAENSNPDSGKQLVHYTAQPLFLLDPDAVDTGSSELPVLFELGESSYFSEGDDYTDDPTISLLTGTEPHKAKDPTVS

H9c2 = test: cells; format: functional, cell-based; settings: Rattus norvegicus, H9c2, Myocardium;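 note: confirmatory concentration-response retest of ultra-high-throughput screening hits for modulation of myocardial damage; cell death induced by hydrogen peroxide oxidative stress; compound pretreatment for 60 min then peroxide exposure for 2 h; potency is for protecting the cells against peroxide damage rather than for killing them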
[4] = molecular target: T2, Heat shock factor protein 1; test: enhancement of HSF1-driven luciferase signal – cell-based, NIH3T3, luminescence, dose retest, confirmation (AID 435004); format: functional;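 note: stress induced by proteasome inhibitor MG132 added 30 min after compound; luciferase reporter driven by HSF1 response element in NIH3T3 cells; actives raise luminescence as potentiators of the MG132 stress response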
[5] = molecular target: T3, Replicative DNA helicase DnaB (Mycobacterium tuberculosis, UniProt P9WMR3); test: DnaB intein splicing inhibitors, dose response, biochemical, cell-free fluorescence (AID 449749); format: functional
T3 sequence (P9WMR3 whole entry): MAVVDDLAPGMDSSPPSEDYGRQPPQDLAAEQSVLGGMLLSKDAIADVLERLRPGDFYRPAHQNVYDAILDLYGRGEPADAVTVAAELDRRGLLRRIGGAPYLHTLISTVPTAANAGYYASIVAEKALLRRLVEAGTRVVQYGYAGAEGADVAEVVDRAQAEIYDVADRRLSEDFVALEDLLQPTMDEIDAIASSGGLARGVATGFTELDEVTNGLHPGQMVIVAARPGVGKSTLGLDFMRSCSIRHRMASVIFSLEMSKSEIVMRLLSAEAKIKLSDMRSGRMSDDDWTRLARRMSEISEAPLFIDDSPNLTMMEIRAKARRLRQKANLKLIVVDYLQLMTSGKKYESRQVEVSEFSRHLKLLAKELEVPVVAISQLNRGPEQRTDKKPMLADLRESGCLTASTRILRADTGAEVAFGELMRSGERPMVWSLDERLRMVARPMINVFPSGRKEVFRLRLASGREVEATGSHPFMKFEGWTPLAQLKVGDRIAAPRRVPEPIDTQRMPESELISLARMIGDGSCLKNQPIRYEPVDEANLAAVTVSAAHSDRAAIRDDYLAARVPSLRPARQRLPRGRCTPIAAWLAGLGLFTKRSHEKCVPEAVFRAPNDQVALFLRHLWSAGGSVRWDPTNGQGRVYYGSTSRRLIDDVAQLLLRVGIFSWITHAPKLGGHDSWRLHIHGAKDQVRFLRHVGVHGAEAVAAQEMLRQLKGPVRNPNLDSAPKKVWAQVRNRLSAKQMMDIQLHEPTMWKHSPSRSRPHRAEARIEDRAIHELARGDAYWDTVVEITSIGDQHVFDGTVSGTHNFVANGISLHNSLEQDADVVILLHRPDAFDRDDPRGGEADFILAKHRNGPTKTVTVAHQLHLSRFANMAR

Protein RecA = molecular target: T4, Protein RecA (Mycobacterium tuberculosis, UniProt P9WHJ3); test: Fluorescence Cell-Free Homogeneous Dose Retest to Identify Inhibitors of RecA-Intein Splicing Activity. [Related pubchem assays (depositor defined):AID2097, AID2223, AID489010, AID492950]; format: functional
T4 sequence (P9WHJ3 whole entry): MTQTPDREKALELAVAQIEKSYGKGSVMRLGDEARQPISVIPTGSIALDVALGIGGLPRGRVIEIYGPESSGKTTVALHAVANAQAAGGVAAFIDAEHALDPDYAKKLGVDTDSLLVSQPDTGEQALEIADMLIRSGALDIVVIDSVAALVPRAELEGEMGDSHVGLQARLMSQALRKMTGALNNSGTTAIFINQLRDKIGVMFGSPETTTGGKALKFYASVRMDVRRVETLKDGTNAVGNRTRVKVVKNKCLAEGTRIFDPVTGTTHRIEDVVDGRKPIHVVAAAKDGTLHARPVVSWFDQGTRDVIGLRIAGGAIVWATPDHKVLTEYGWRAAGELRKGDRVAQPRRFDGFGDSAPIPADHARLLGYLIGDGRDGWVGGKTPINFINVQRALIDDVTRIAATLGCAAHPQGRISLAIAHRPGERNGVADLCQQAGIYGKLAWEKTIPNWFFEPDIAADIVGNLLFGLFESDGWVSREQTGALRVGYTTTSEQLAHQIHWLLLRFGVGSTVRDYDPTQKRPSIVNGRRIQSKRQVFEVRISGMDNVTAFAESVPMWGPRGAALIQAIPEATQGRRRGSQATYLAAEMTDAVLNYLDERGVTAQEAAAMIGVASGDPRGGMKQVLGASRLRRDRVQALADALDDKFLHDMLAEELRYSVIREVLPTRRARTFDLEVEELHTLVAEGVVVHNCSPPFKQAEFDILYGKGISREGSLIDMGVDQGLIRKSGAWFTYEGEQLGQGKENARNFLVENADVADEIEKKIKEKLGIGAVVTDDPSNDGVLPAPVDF

[6] = viability of uninfected HEp-2 cells – cell-based, HTS, cytotoxicity control for RSV inhibitor project, dose response (AID 2410); format: functional; settings: human respiratory syncytial virus
[7] = microbe, parasite or virus in culture; format: functional; settings: Mycobacterium tuberculosis
[8] = Luminescence Cell-Based Dose Retest to Confirm Inhibitors of Cancer Stem Cells. [Related pubchem assays (depositor defined):AID2717, AID2721]; format: functional; settings: Homo sapiens
[9] = molecular target: Luciferin 4-monooxygenase (Photinus pyralis, UniProt P08659); test: inhibition of purified Photinus pyralis luciferase – biochemical, luminescence, dose response (AID 1891)
[10] = Luminescence Cell-Based Dose Confirmation HTS to Identify Inhibitors of Platelet Dense Granule Release. [Related pubchem assays: 1663 (Primary HTS), 1678 (Summary of Project)]; format: functional
Paired box protein Pax-8 = Paired box protein Pax-8 (Homo sapiens, UniProt Q06710); test: PAX8 transcriptional activity inhibition in RMG-I – RMG-I cells, luciferase, cherry-pick, dose response (AID 687027); format: functional, cell-based;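 note: luciferase reporter driven by Pax8 target thyroperoxidase promoter measured by SteadyGlo luminescence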
Cytochrome P450 2C9 = Cytochrome P450 2C9 (Homo sapiens, UniProt P11712)
Cytochrome P450 2C9, sequence (P11712 whole entry): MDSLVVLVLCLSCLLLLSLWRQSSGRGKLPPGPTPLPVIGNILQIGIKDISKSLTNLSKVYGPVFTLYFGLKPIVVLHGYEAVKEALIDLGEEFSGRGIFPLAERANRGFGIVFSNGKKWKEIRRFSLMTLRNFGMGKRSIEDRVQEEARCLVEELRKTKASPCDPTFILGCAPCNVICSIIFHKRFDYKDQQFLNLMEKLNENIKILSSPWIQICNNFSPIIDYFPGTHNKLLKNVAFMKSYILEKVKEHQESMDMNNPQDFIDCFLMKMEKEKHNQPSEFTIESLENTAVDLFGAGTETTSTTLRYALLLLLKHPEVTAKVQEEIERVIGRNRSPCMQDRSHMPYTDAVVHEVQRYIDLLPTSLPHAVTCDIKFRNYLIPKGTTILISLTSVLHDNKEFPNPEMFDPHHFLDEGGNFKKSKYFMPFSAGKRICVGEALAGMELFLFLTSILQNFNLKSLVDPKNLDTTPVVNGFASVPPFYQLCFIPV

Paired box protein Pax-8, sequence (Q06710 whole entry): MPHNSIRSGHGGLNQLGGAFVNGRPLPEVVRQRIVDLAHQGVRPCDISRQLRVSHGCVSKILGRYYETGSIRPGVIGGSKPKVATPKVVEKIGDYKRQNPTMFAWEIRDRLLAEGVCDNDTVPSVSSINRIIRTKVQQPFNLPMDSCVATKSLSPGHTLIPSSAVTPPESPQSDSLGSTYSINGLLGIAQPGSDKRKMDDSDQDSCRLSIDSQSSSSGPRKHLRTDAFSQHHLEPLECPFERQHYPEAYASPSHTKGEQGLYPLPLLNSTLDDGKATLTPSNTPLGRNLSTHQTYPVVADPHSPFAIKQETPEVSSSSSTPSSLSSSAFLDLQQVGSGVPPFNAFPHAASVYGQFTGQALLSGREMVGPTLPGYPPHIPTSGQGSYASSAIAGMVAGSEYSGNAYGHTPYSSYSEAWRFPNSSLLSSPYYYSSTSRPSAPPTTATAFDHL
Luciferin 4-monooxygenase, sequence (P08659 whole entry): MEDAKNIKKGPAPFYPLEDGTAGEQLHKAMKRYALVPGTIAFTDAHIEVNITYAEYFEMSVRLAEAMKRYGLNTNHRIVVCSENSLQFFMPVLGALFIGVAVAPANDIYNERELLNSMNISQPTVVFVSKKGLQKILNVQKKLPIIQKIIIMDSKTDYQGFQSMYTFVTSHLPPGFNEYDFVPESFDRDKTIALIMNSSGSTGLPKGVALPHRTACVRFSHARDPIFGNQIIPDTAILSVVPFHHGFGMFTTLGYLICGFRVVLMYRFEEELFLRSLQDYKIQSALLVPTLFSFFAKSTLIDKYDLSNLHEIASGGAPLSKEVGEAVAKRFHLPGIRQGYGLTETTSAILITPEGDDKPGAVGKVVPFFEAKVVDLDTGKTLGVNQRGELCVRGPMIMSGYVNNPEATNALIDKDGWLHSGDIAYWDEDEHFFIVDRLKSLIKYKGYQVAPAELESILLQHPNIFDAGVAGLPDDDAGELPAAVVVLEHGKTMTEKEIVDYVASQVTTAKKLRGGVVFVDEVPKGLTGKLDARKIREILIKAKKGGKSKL
T1 sequence (P11940 whole entry, the tested form may be a part): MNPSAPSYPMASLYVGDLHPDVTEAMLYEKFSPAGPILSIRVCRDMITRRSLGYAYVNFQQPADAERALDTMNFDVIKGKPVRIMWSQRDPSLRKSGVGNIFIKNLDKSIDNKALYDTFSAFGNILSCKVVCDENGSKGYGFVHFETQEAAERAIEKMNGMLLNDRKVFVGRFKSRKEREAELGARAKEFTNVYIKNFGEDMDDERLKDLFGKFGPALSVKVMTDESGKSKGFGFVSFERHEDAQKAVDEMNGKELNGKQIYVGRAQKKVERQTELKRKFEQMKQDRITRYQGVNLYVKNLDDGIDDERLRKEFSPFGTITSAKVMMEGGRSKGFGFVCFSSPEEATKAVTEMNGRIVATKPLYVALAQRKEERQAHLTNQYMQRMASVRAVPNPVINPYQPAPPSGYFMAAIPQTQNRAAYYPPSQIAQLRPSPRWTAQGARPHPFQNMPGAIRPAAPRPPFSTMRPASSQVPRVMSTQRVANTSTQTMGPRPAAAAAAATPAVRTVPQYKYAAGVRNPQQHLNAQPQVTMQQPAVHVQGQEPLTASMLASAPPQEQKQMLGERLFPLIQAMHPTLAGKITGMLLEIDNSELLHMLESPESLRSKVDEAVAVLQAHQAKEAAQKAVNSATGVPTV

Cc1ccnc(SC2CC(=O)N(c3ccc([N+](=O)[O-])cc3)C2=O)n1 (stereo not given)
IC50 [1]: > 66 µM (inactive)
IC50 [2]: > 66 µM (inactive)

COc1cc(NC(=O)c2cc3ccccc3cc2OC)ccc1NC(=O)c1cccs1
EC50 [3]: 14.1 µM (active)
IC50 (H9c2): > 79 µM (inactive)

CCC(c1nnnn1Cc1ccco1)N(Cc1cc2cc(OC)ccc2nc1O)C1CCCCC1 (stereo not given)
EC50 [4]: 10.7 µM (active)
AC50 [5]: > 380 µM (inactive)
EC50 (Protein RecA): 40.2 µM (inconclusive)

Cn1c(=O)c2c(SCc3c(F)cccc3Cl)nc(CC(C)(C)C)nc2n(C)c1=O
CC50 [6]: 30.1 µM (active)

CCOc1ccc(CN(C)CC(O)COC(c2ccc(OC)cc2)c2ccc(OC)cc2)cc1 (stereo not given)
CC50 [7]: 26.6 µM (active)
EC50 [4]: > 260 µM (inactive)

COc1ccc(Cn2nnnc2C(c2ccccc2Cl)N2CCC(C(N)=O)CC2)cc1 (stereo not given)
EC50 [3]: > 195 µM (not active)

Cc1ccc(/C=C/C(=O)N2CC(C)CC(C)C2)o1 (stereo not given)
CC50 [7]: > 40 µM (active)
AC50 [8]: 22.8 µM (active)
EC50 [4]: 24.5 µM (active)

CC1=C(C(=O)Nc2ccccc2C)C(c2cccs2)NC(S)=N1 (stereo not given)
EC50 [3]: > 195 µM (not active)

COc1ccc(NC(=O)CN2C(=O)C(c3ccccc3)=NC23CCCCCC3)cc1
EC50 [9]: > 112 µM (not active)
EC50 [10]: > 112 µM (not active)

Cc1ccccc1-n1c(=O)cc(N2CCc3ccccc32)[nH]c1=O
EC50 [3]: > 195 µM (not active)

O=C(Cc1nnc(O)c2ccccc12)NCc1ccc(Cl)cc1
EC50 [9]: > 112 µM (not active)
EC50 [10]: > 112 µM (not active)
IC50 (H9c2): > 79 µM (inactive)

COc1ccccc1NC(=O)C(C)NS(=O)(=O)c1ccccc1 (stereo not given)
EC50 [9]: > 112 µM (not active)
EC50 [10]: > 112 µM (not active)

CN(Cc1ccc2c(c1)CCCN2C)C(=O)[C@H]1O[C@@H](n2ccc(=O)[nH]c2=O)[C@H](O)[C@@H]1O
IC50 [1]: > 66 µM (inactive)
IC50 [2]: > 66 µM (inactive)

CCOC1=C2CN(S(=O)(=O)c3ccc(C)cc3)[C@@H](c3ccccc3)C[C@H]2[C@H]2C(=O)N(c3ccccc3)C(=O)[C@H]2C1
IC50 [1]: > 66 µM (inactive)
IC50 [2]: 51 µM (inactive)

C[C@@H]1CCCCO[C@H](CN(C)S(=O)(=O)c2ccc(Cl)cc2)[C@@H](C)CN([C@@H](C)CO)C(=O)c2cc(NC(=O)CCC(F)(F)F)ccc2O1
AC50 (Paired box protein Pax-8): 3.2 µM (active)

C[C@H](CO)N1C[C@H](C)[C@H](CN(C)C(=O)NC2CCCCC2)OCCCC[C@H](C)Oc2ccc(NC(=O)Nc3ccc(C(F)(F)F)cc3)cc2C1=O
AC50 (Paired box protein Pax-8): 6.15 µM (active)

C[C@@H]1CN([C@@H](C)CO)S(=O)(=O)c2ccc(C#Cc3ccccc3F)cc2O[C@H]1CN(C)CC1CCOCC1
AC50 (Paired box protein Pax-8): 10.3 µM (active)

COc1ccc(NC(=O)CC2Sc3ncnn3C2=O)cc1 (stereo not given)
IC50 [1]: > 66 µM (inactive)
IC50 [2]: > 66 µM (inactive)

O=C1CCC(c2ccc(-n3ccnc3)cc2)=NN1 [IMAZODAN]
EC50 [9]: > 112 µM (not active)
EC50 [10]: 1.36 µM (active)
AC50 (Cytochrome P450 2C9): 31.6 µM (inconclusive)
